# Measurements taken from PubChem BioAssay AID489006 (Sanford-Burnham Center for Chemical Genomics, 2010).
# Active and inactive are the calls of the source. No rule for the calls is given here.
# System: Jurkat NF-kB reporter, luminescence
# Test: NF-kB reporter inhibition in Jurkat cells, dose response, selectivity assay for B-cell receptor NF-kB inhibitor project, cell-based, luminescence (AID 489006)
row,Compound,IC50
1,CCn1c(=O)cc(SCC(=O)N2CCC3(CC2)OCCO3)c2ccccc21,> 80 µM (inactive)
2,COc1ccc(-n2c(-c3ccc(Cl)cc3)c[n+]3c2CCc2ccccc2-3)cc1,28.6 µM (inactive)
3,Oc1cc(O)cc(-c2cc3ccc(O)cc3o2)c1,> 80 µM (inactive)
4,COc1ccc(/C=N/OCC(=O)NC(c2ccccc2)c2ccccc2)cc1OC,> 80 µM (inactive)
5,CCCCCCn1c(-c2ccco2)nc2oc3cc(OC)ccc3c(=O)c2c1=O,> 80 µM (inactive)
6,Cc1cnc(NC(=O)Nc2ccc(Cl)cc2)s1,> 80 µM (inactive)
7,Cc1ccc(-c2nn3c(C)nnc3c3ccccc23)cc1S(=O)(=O)NCc1ccco1,46.7 µM (inactive)
8,CC(C)Oc1ccc(C(=O)Nc2ccc(N(C)C)cc2)cc1,> 80 µM (inactive)
9,CC(C)[C@H](N)c1nnc(SCC(=O)c2ccc(Cl)cc2)o1,> 80 µM (inactive)
10,Cc1nc(Nc2c(Cl)cccc2Cl)sc1C(=O)Nc1ccccc1,> 80 µM (inactive)
11,Fc1ccc(C2=Nn3c(nnc3-c3n[nH]c4c3CCC4)SC2)cc1,> 80 µM (inactive)
12,O=C(CCCN1C(=O)/C(=C/c2ccccc2Cl)SC1=S)NNC(=O)c1ccccc1,5.2 µM
13,Cc1nn(C(C)(C)C)c(C)c1/C=N/OC(=O)Nc1ccc(Cl)c(Cl)c1,0.208 µM
14,Cc1ccc(-c2nsc3c(N4CCC(C(N)=O)CC4)ncnc23)cc1,78.1 µM (inactive)
15,CN1CCN(C(=O)c2ccccc2N(Cc2ccccc2)S(=O)(=O)c2ccccc2)CC1,> 80 µM (inactive)
16,COCCNC(=O)CSCc1nc(-c2ccc(SC)cc2)oc1C,> 80 µM (inactive)
17,COc1ccc(-c2ccc(C(C)=O)cc2)cc1[C@H]1[C@H]2C=CC[C@@H](C)[C@@H]2C(=O)N1Cc1ccccc1,> 80 µM (inactive)
18,CSC1CCCCC1(O)CSc1nc2c(cc1C#N)CCCC2 (configuration not stated),> 80 µM (inactive)
19,Cn1c(=O)cc(OCC(=O)N2CCC3(CC2)OCCO3)c2ccccc21,> 80 µM (inactive)
20,COc1ccccc1/C=C1\SC(=S)N(CCC(=O)NC2=NCCS2)C1=O,28.3 µM (inactive)
21,CCn1c(=S)[nH]c2cc(S(=O)(=O)N3CCCCC3)ccc21,> 80 µM (inactive)
22,O=C(CCCN1C(=O)/C(=C/c2ccccc2Cl)SC1=S)NNC(=O)c1ccc(Cl)cc1,2.04 µM
23,Cc1c(CCC(=O)NCCCn2ccnc2)c(=O)oc2c(C)c3oc4c(c3cc12)CCCC4,11 µM
24,O=C(CCl)N(c1ccc(Cl)cc1)c1c[nH]c2ccccc12,0.85 µM
25,Cn1c(=NC(=O)CCl)sc2ccccc21,1.18 µM

row,Compound,IC50
1,ClCc1nnc(-c2ccccc2)o1,10.5 µM
2,C(=N\Nc1nc(Nc2ccccc2)nc(Nc2ccccc2)n1)/c1cccnc1,> 80 µM (inactive)
3,CC(=O)c1cccc(S(=O)(=O)Nc2cc(C(F)(F)F)ccc2N2CCOCC2)c1,62.2 µM (inactive)
4,N=c1ccn2c(n1)O[C@H]1[C@H](O)[C@@H](CO)O[C@H]12,0.64 µM
5,COc1cc(-c2[nH]nc3c2C(c2ccco2)C(C#N)=C(N)O3)cc(OC)c1OC (configuration not stated),61 µM (inactive)
6,CCc1ccc(-c2nnn(CCC(=O)OC)n2)cc1,1.78 µM
7,COc1ccc(/C=C2\SC(=S)N(CCCC(=O)Nc3ccc(O)cc3)C2=O)cc1,> 80 µM (inactive)
8,COc1ccc(OC)c(C2CC(=O)Nc3cc(OC)c(OC)c(OC)c32)c1 (configuration not stated),> 80 µM (inactive)
9,CCn1c(=O)cc(SCC(=O)N2CCN(C)CC2)c2ccccc21,> 80 µM (inactive)
10,O=c1c(C=NCCCO)c(-c2ccccc2)[nH]n1-c1nc2ccccc2s1,3.46 µM
11,Nc1ccccc1SCC(=O)Nc1nc(-c2ccccc2)cs1,> 80 µM (inactive)
12,C=CCOC(=O)COc1cc(C)cc2oc(=O)c3c(c12)CCC3,> 80 µM (inactive)
13,C=CCOc1ccc(NC(=O)C(=O)NCCCn2ccnc2)cc1,> 80 µM (inactive)
14,Cc1cc(-c2cc(C(=O)NCc3ccccc3)on2)nc(S(C)(=O)=O)n1,3.91 µM
15,O=C1NC[C@H](c2ccccc2)OC(=O)[C@@H](Cc2ccc(F)cc2)C/C=C\C[C@H]1CC(=O)N(CCO)Cc1ccccc1,11.8 µM
16,O=C(CCCN1C(=O)/C(=C/c2ccccc2Cl)SC1=S)NNC(=O)c1ccncc1,7.79 µM
17,COc1cc2c3c(c1)c(N=NC(N)=S)c(O)n3C(C)(C)C=C2C,> 80 µM (inactive)
18,CCn1c(=O)cc(OCC(=O)Nc2ccc(OC)c(OC)c2)c2ccccc21,> 80 µM (inactive)
19,Cc1nc2cc(-c3cccc(F)c3)nn2c(C)c1CCC(=O)NC(C)CCc1ccco1 (configuration not stated),4.14 µM
20,Cc1ccc(C)c(-n2nnnc2Sc2nnnn2-c2ccccc2)c1,1.42 µM
21,Cc1nc2ccccn2c1C(=O)/C=C/c1cccc([N+](=O)[O-])c1,4.57 µM
22,O=C(Nc1cccc(Br)c1)c1ccc2c(c1)SC1=NS(=O)(=O)CCN12,> 80 µM (inactive)
23,CCN1C(=O)c2cccc3c(S(=O)(=O)NCC4CCCO4)ccc1c23 (configuration not stated),> 80 µM (inactive)
24,Cc1ccc(NC(=O)O/N=C/c2c(C)nn(C(C)(C)C)c2C)cc1Cl,< 0.16 µM
25,CCN1C(=O)c2cccc3c(NC(=O)c4cccc(N5C(=O)CCC5=O)c4)ccc1c23,> 80 µM (inactive)

row,Compound,IC50
1,COc1ccc(/C=C2/SC(=S)N(CCC(=O)O)C2=O)cc1,0.4 µM
2,CCCOc1ccc(NC(=O)C(=O)NCCCn2ccnc2)cc1,> 80 µM (inactive)
3,CC1CN(S(=O)(=O)c2ccc(C(=O)Nc3nc(-c4cc5ccccc5o4)cs3)cc2)CC(C)O1 (configuration not stated),49.9 µM (inactive)
4,Cc1cc(C)c2nc(NC(=O)[C@@H](NC(=O)c3cccc(S(=O)(=O)N4CCOCC4)c3)C(C)C)sc2c1,20.8 µM (inactive)
5,Cc1nc2cc(-c3ccccc3)nn2c(C)c1CCC(=O)NCc1ccco1,> 80 µM (inactive)
6,Cn1c(=O)n(C)c2cc(NS(=O)(=O)c3ccccc3)ccc21,51.8 µM (inactive)
7,CC1CCc2c(sc3nc(C(C)(C)C)nc(N4CCN(C(=O)CCl)CC4)c23)C1 (configuration not stated),1.27 µM
8,Cc1c(CCO)c(=O)oc2n[nH]c(-c3ccccc3)c12,> 80 µM (inactive)
9,O=C(CN1C(=O)c2ccccc2S1(=O)=O)c1ccccc1Cl,1.26 µM
10,CCN1C(=O)c2cccc3c(S(=O)(=O)N4CCC(C)CC4)ccc1c23,> 80 µM (inactive)
11,C=CCn1c(O)c(C(C)=NC(C)c2ccccc2)c(=O)[nH]c1=O (configuration not stated),> 80 µM (inactive)
12,CCN(CC(=O)Nc1c(F)cccc1F)C(=O)c1cc(S(=O)(=O)N2CCOCC2)ccc1N1CCCC1,> 80 µM (inactive)
13,CN(CC1CCCO1)S(=O)(=O)c1ccc(C(=O)Nc2nc3cc4c(cc3s2)OCO4)cc1 (configuration not stated),> 80 µM (inactive)
14,CCOC(=O)N1CCN(c2ncnc3c2[nH]c2ccc(OC)cc23)CC1,61 µM (inactive)
15,CCc1ccc2nc(Nc3nc(COC)cc(=O)[nH]3)nc(C)c2c1,> 80 µM (inactive)
16,CCn1c(=O)cc(OCC(=O)N(C)C2CCCCC2)c2ccccc21,> 80 µM (inactive)
17,NNC(=O)COc1ccc(-c2nccc(-c3ccc(F)cc3)n2)cc1,1.79 µM
18,CNC(=O)c1cccn(Cc2ccc(C(F)(F)F)cc2)c1=O,20.9 µM (inactive)
19,CCOc1ccc(-c2nnc(SCC(=O)Nc3cc(C)on3)o2)cc1,1.52 µM
20,COc1ccc(-c2noc(N3CCC(C(=O)Nc4ccc(OC)c(OC)c4)CC3)n2)cc1,> 80 µM (inactive)
21,COC(=O)c1c(NC(=O)c2cccc([N+](=O)[O-])c2)sc(C(N)=O)c1C,> 80 µM (inactive)
22,CCOc1ccc(-c2cc(CCCC(=O)NCCCOC)no2)cc1,> 80 µM (inactive)
23,Cn1nc(-c2ccc(Cl)cc2)c2cc(C(=O)N3CCCC3)sc21,> 80 µM (inactive)
24,COC(=O)[C@@]12OC[C@]34[C@H]([C@@H](O)[C@@H]1O)[C@@]1(C)C(=O)C(O[C@@H]5OC(CO)[C@@H](O)[C@@H](O)[C@@H]5O)=C[C@@H](C)[C@@H]1C[C@H]3OC(=O)[C@H](OC(=O)/C=C(\C)C(C)(C)OC(C)=O)[C@@H]24 (some centres not stated),0.82 µM
25,CCN1C(=O)c2cccc3c(S(=O)(=O)Nc4ccccn4)ccc1c23,40.5 µM (inactive)

row,Compound,IC50
1,CCC(C)[C@H](N)c1nnc(SCC(=O)c2ccc(Cl)cc2)o1 (some centres not stated),72.9 µM (inactive)
2,Cc1ccc(C(=O)NNC(=O)CCCN2C(=O)/C(=C/c3ccccc3Cl)SC2=S)cc1,4.81 µM
3,COc1ccc(C(=O)Nc2nnc(Cc3cccs3)s2)cc1OC,> 80 µM (inactive)
4,O=[N+]([O-])c1ccc(Sc2cc[n+]([O-])c3ccccc23)c([N+](=O)[O-])c1,6.03 µM
5,COc1cccc(-c2noc(CCC(=O)NCCc3ccccc3)n2)c1,29.8 µM (inactive)
6,CC(C)OCCCNC(=O)c1c(N)n(/N=C/c2ccccn2)c2nc3ccccc3nc12,40.2 µM (inactive)
7,Cc1nn(C(C)(C)C)c(OC(=O)c2ccc(Br)o2)c1Sc1ccccc1,> 80 µM (inactive)
8,C=CCOc1ccc(/C=C2\SC(=S)N(CCC(=O)O)C2=O)cc1,< 0.16 µM
9,Cc1ccc(CSc2nnc(SCC(=O)N/N=C/C=C/c3ccccc3[N+](=O)[O-])s2)cc1,67 µM (inactive)
10,COc1cc(/C=N/Nc2nc(Nc3ccccc3)nc(N3CCOCC3)n2)ccc1OC(=O)c1ccco1,> 80 µM (inactive)
11,Cc1nc([N+](=O)[O-])c(Sc2nc3ccc([N+](=O)[O-])cc3[nH]2)n1Cc1ccccc1,7.42 µM
12,Cc1ccc(C)c(OCc2ccc(C(=O)NN)o2)c1,> 80 µM (inactive)
13,N=c1c(C(=O)NC2CCCC2)cc2c(=O)n3ccccc3nc2n1CCN1CCOCC1,> 80 µM (inactive)
14,COc1cc(/C(C)=N\NC(N)=S)cc(OC)c1OC,72.5 µM (inactive)
15,CC(=O)C1=NN(c2ccccc2)C(c2cccs2)N1c1ccc(N(C)C)cc1 (configuration not stated),> 80 µM (inactive)
16,CCn1c(=O)cc(SCC(=O)N2CCOCC2)c2ccccc21,> 80 µM (inactive)
17,Cc1ccc(/C=C2\SC(=S)N(CCCC(=O)Nc3cc(C)on3)C2=O)cc1,17.7 µM
18,O=C(N/N=C/c1ccc(Cl)cc1Cl)c1ccc(-n2cnnn2)cc1,> 80 µM (inactive)
19,Cc1cc(OCC(=O)Nc2ccc(CCO)cc2)c2c(C)c(C)c(=O)oc2c1,> 80 µM (inactive)
20,Cc1ccc(-c2nn3c(C)nnc3c3ccccc23)cc1S(=O)(=O)N1CCN(CCO)CC1,43.4 µM (inactive)
21,Cn1c(=O)cc(SCC(=O)N2CCCC2)c2cc(Cl)ccc21,> 80 µM (inactive)
22,CCOC(=O)c1sc(NC(=O)c2cc(-c3ccccc3C)nc3ccccc23)c(C#N)c1C,> 80 µM (inactive)
